# Laboratory results taken from US9670227B2, “Thienopyrimidine derivatives, a process for their preparation and pharmaceutical compositions containing them” (LES LABORATOIRES SERVIER, priority 2013, dated 2017).
# Where two headings read alike, the source gives them in different places.
# Target: Mcl-1 protein (UniProtKB primary accession number: Q07820) (Homo sapiens, UniProt Q07820)
# Test: Inhibition of Mcl-1 by fluorescence polarisation, Method 1
# Assay type: binding
# Conditions: read-out: IC50 (M) Mcl-1 FP
# Procedure, shortened: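 FP competition, 11-point compound titration in 5% final DMSO; protein and labelled probe at 5 nM and 1 nM final in HEPES/NaCl/Tween 20 buffer, pH 7.4.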
# [1] = fluorescence polarisation, Method 1, or Method 2
# [2] = fluorescence polarisation test, Method 1, or Method 2 where the value is underlined (underlining not visible)
# Chain of Mcl-1 protein (Q07820 whole entry): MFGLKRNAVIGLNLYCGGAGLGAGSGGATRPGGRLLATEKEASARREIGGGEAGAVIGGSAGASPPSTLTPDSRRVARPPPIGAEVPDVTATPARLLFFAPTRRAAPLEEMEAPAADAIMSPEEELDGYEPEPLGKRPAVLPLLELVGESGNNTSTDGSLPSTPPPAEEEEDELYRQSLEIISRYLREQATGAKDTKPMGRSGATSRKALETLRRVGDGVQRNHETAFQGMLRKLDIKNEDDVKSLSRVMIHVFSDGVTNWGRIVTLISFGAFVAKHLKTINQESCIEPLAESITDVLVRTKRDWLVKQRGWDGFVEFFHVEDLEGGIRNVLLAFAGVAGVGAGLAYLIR
SMILES,IC50 [1] [M],IC50 [2] [M]
"C=Cc1sc2ncnc(OC(Cc3ccccc3)C(=O)O)c2c1-c1cccc(Cl)c1C [Example 721, (2R)-2-{[(5Sa)-5-(3-chloro-2-methylphenyl)-6-ethenylthieno[2,3-d]pyrimidin-4-yl]oxy}-3-phenylpropanoic acid]",7.6e-08,
"COc1cnc(C)cc1-c1nccc(COc2ccccc2CC(Oc2ncnc3sc(-c4ccc(F)cc4)c(-c4ccc(OCCN5CCN(C)CC5)c(Cl)c4C)c23)C(=O)O)n1 [Example 734, (2R)-2-{[(5Sa)-5-{3-chloro-2-methyl-4-[2-(4-methylpiperazin-1-yl)ethoxy]phenyl}-6-(4-fluorophenyl)thieno[2,3-d]pyrimidin-4-yl]oxy}-3-(2-{[2-(5-methoxy-2-methylpyridin-4-yl)pyrimidin-4-yl]methoxy}phenyl)propanoic acid]",9.48e-10,
"Cc1c(-c2c(-c3ccc(F)cc3)sc3ncnc(OC(Cc4ccccc4OCc4ccnn4Cc4ccncc4)C(=O)O)c23)ccc(OCCN2CCN(C)CC2)c1Cl [Example 736, (2R)-2-{[(5Sa)-5-{3-chloro-2-methyl-4-[2-(4-methylpiperazin-1-yl)ethoxy]phenyl}-6-(4-fluorophenyl)thieno[2,3-d]pyrimidin-4-yl]oxy}-3-(2-{[1-(pyridin-4-ylmethyl)-1H-pyrazol-5-yl]methoxy}phenyl)propanoic acid]",2.58e-09,
"COc1ccccc1-n1ccc(COc2ccccc2CC(Oc2ncnc3sc(-c4ccc(F)cc4)c(-c4ccc(OCCN5CCN(C)CC5)c(Cl)c4C)c23)C(=O)O)n1 [Example 737, (2R)-2-{[(5Sa)-5-{3-chloro-2-methyl-4-[2-(4-methylpiperazin-1-yl)ethoxy]phenyl}-6-(4-fluorophenyl)thieno[2,3-d]pyrimidin-4-yl]oxy}-3-(2-{[1-(2-methoxyphenyl)-1H-pyrazol-3-yl]methoxy}phenyl)propanoic acid]",1.43e-08,
"Cc1c(-c2c(-c3ccc(F)cc3)sc3ncnc(OC(Cc4ccccc4OCc4ccnc(-c5ccccc5F)n4)C(=O)O)c23)ccc(OCCN(C)C2CC2)c1Cl [Example 748, (2R)-2-{[(5Sa)-5-(3-chloro-4-{2-[cyclopropyl(methyl)amino]ethoxy}-2-methylphenyl)-6-(4-fluorophenyl)thieno[2,3-d]pyrimidin-4-yl]oxy}-3-(2-{[2-(2-fluorophenyl)pyrimidin-4-yl]methoxy}phenyl)propanoic acid]",1.21e-08,
"Cc1c(-c2c(-c3ccc(F)cc3)sc3ncnc(O[C@H](Cc4ccccc4OCc4ccnc(-c5ccccc5O)n4)C(=O)O)c23)ccc(OCCN2CCNCC2)c1Cl [Example 749, (2R)-2-{[(5Sa)-5-{3-chloro-2-methyl-4-[2-(piperazin-1-yl)ethoxy]phenyl}-6-(4-fluorophenyl)thieno[2,3-d]pyrimidin-4-yl]oxy}-3-(2-{[2-(2-hydroxyphenyl)pyrimidin-4-yl]methoxy}phenyl)propanoic acid]",8.24e-09,
"Cc1c(-c2c(-c3ccc(OCc4ccn(C)n4)cc3)sc3ncnc(OC(Cc4ccccc4OCC(F)(F)F)C(=O)O)c23)ccc(OCCN2CCN(C)CC2)c1Cl [Example 780, (2R)-2-[((5Sa)-5-{3-chloro-2-methyl-4-[2-(4-methylpiperazin-1-yl)ethoxy]phenyl}-6-{4-[(1-methyl-1H-pyrazol-3-yl)methoxy]phenyl}thieno[2,3-d]pyrimidin-4-yl)oxy]-3-[2-(2,2,2-trifluoroethoxy)phenyl]propanoic acid]",7.26e-09,
"COc1ccccc1-c1nccc(COc2ccccc2CC(Oc2ncnc3sc(C#CCCN4CCOCC4)c(-c4ccc(OCCN5CCN(C)CC5)c(Cl)c4C)c23)C(=O)O)n1 [Example 785, (2R)-2-[((5Sa)-5-{3-chloro-2-methyl-4-[2-(4-methylpiperazin-1-yl)ethoxy]phenyl}-6-[4-(morpholin-4-yl)but-1-yn-1-yl]thieno[2,3-d]pyrimidin-4-yl)oxy]-3-(2-{[2-(2-methoxyphenyl)pyrimidin-4-yl]methoxy}phenyl)propanoic acid]",3.85e-09,
"COc1ccccc1-c1nccc(COc2ccccc2CC(Oc2ncnc3sc(C#CCN4CCOCC4)c(-c4ccc(OCCN5CCN(C)CC5)c(Cl)c4C)c23)C(=O)O)n1 [Example 786, (2R)-2-[((5Sa)-5-{3-chloro-2-methyl-4-[2-(4-methylpiperazin-1-yl)ethoxy]phenyl}-6-[3-(morpholin-4-yl)prop-1-yn-1-yl]thieno[2,3-d]pyrimidin-4-yl)oxy]-3-(2-{[2-(2-methoxyphenyl)pyrimidin-4-yl]methoxy}phenyl)propanoic acid]",4.95e-09,
"CCOC(=O)C(Cc1ccccc1OCc1ccnn1C(C)(C)C)Oc1ncnc2sc(-c3ccc(F)cc3)c(-c3ccc(OCCN4CCN(C)CC4)c(Cl)c3C)c12 [Example 791, ethyl (2R)-3-{2-[(1-tert-butyl-1H-pyrazol-5-yl)methoxy]phenyl}-2-{[(5Sa)-5-{3-chloro-2-methyl-4-[2-(4-methylpiperazin-1-yl)ethoxy]phenyl}-6-(4-fluorophenyl)thieno[2,3-d]pyrimidin-4-yl]oxy}propanoate]",2.26e-06,
"CC#Cc1sc2ncnc(OC(Cc3ccccc3OCc3ccnn3C(C)(C)C)C(=O)OCC)c2c1-c1ccc(OCCN2CCN(C)CC2)c(Cl)c1C [Example 792, ethyl (2R)-3-{2-[(1-tert-butyl-1H-pyrazol-5-yl)methoxy]phenyl}-2-{[(5Sa)-5-{3-chloro-2-methyl-4-[2-(4-methylpiperazin-1-yl)ethoxy]phenyl}-6-(prop-1-yn-1-yl)thieno[2,3-d]pyrimidin-4-yl]oxy}propanoate]",6.44e-06,
"CCOC(=O)C(Cc1ccccc1OCc1ccnc(-c2ccccc2OCCOC)n1)Oc1ncnc2sc(-c3ccc(F)cc3)c(-c3ccc(OCCN4CCN(C)CC4)c(Cl)c3C)c12 [Example 796, ethyl (2R)-2-{[(5Sa)-5-{3-chloro-2-methyl-4-[2-(4-methylpiperazin-1-yl)ethoxy]phenyl}-6-(4-fluorophenyl)thieno[2,3-d]pyrimidin-4-yl]oxy}-3-[2-({2-[2-(2-methoxyethoxy)phenyl]pyrimidin-4-yl}methoxy)phenyl]propanoate]",,5.16e-07

# Results, then the molecule that gave them:
IC50 [1] [M],IC50 [2] [M],SMILES
9.4e-09,,"COc1nccc(COc2ccccc2CC(Oc2ncnc3sc(-c4ccc(F)c(OCCN(C)C)c4)c(-c4ccc(OC)c(Cl)c4C)c23)C(=O)O)n1 [Example 702, (2R)-2-{[(5Sa)-5-(3-chloro-4-methoxy-2-methylphenyl)-6-{3-[2-(dimethylamino)ethoxy]-4-fluorophenyl}thieno[2,3-d]pyrimidin-4-yl]oxy}-3-{2-[(2-methoxypyrimidin-4-yl)methoxy]phenyl}propanoic acid]"
4.1e-07,,"Cc1c(-c2c(-c3cnn(C)c3)sc3ncnc(OC(Cc4ccccc4)C(=O)O)c23)ccc(OCCN2CCOCC2)c1Cl [Example 712, (2R)-2-{[(5Sa)-5-{3-chloro-2-methyl-4-[2-(morpholin-4-yl)ethoxy]phenyl}-6-(1-methyl-1H-pyrazol-4-yl)thieno[2,3-d]pyrimidin-4-yl]oxy}-3-phenylpropanoic acid]"
1.6e-08,,"COc1ccccc1CC(Oc1ncnc2sc(-c3cccc(OCCN4CCN(C)CC4)c3)c(-c3ccc(OC)c(Cl)c3C)c12)C(=O)O [Example 713, (2R)-2-{[(5Sa)-5-(3-chloro-4-methoxy-2-methylphenyl)-6-{3-[2-(4-methylpiperazin-1-yl)ethoxy]phenyl}thieno[2,3-d]pyrimidin-4-yl]oxy}-3-(2-methoxyphenyl)propanoic acid]"
1.6e-09,,"COc1ccccc1CC(Oc1ncnc2sc(-c3ccsc3)c(-c3ccc(O)c(Cl)c3C)c12)C(=O)O [Example 715, (2R)-2-{[(5Sa)-5-(3-chloro-4-hydroxy-2-methylphenyl)-6-(thiophen-3-yl)thieno[2,3-d]pyrimidin-4-yl]oxy}-3-(2-methoxyphenyl)propanoic acid]"
1.18e-09,,"Cc1c(-c2c(-c3ccc(F)cc3)sc3ncnc(O[C@H](Cc4ccccc4OCc4ccnc(-c5ccccc5CO)n4)C(=O)O)c23)ccc(OCCN2CCN(C)CC2)c1Cl [Example 728, (2R)-2-{[(5Sa)-5-{3-chloro-2-methyl-4-[2-(4-methylpiperazin-1-yl)ethoxy]phenyl}-6-(4-fluorophenyl)thieno[2,3-d]pyrimidin-4-yl]oxy}-3-[2-({2-[2-(hydroxymethyl)phenyl]pyrimidin-4-yl}methoxy)phenyl]propanoic acid]"
5.04e-09,,"COc1ccccc1Cn1ccc(COc2ccccc2CC(Oc2ncnc3sc(-c4ccc(F)cc4)c(-c4ccc(OCCN5CCN(C)CC5)c(Cl)c4C)c23)C(=O)O)n1 [Example 740, (2R)-2-{[(5Sa)-5-{3-chloro-2-methyl-4-[2-(4-methylpiperazin-1-yl)ethoxy]phenyl}-6-(4-fluorophenyl)thieno[2,3-d]pyrimidin-4-yl]oxy}-3-(2-{[1-(2-methoxybenzyl)-1H-pyrazol-3-yl]methoxy}phenyl)propanoic acid]"
,5.37e-06,"CCOC(=O)C(Cc1ccccc1OCc1ccnc(-c2ccccc2O)n1)Oc1ncnc2sc(-c3ccc(F)cc3)c(-c3ccc(OCCN4CCN(C)CC4)c(Cl)c3C)c12 [Example 793, ethyl (2R)-2-{[(5Sa)-5-{3-chloro-2-methyl-4-[2-(4-methylpiperazin-1-yl)ethoxy]phenyl}-6-(4-fluorophenyl)thieno[2,3-d]pyrimidin-4-yl]oxy}-3-(2-{[2-(2-hydroxyphenyl)pyrimidin-4-yl]methoxy}phenyl)propanoate]"
,8.5e-07,"CCOC(=O)C(Cc1ccccc1OCc1ccnc(-c2ccccc2OC)n1)Oc1ncnc2sc(-c3ccc(F)cc3)c(-c3ccc(OCCN4CCNCC4)c(Cl)c3C)c12 [Example 795, ethyl (2R)-2-{[(5Sa)-5-{3-chloro-2-methyl-4-[2-(piperazin-1-yl)ethoxy]phenyl}-6-(4-fluorophenyl)thieno[2,3-d]pyrimidin-4-yl]oxy}-3-(2-{[2-(2-methoxyphenyl)pyrimidin-4-yl]methoxy}phenyl)propanoate]"
